Experimental data published in a melting point compilation (Tetko et al.; mined from patent text by program, amines drawn as free bases though some values may be those of a salt).

| melting point [°C] | SMILES |
| --- | --- |
| 170 to 171 | O=S1OC(c2ccc(F)cc2)C(Cn2cncn2)(c2ccc(Cl)cc2Cl)O1 (stereo not drawn) |
| 260 to 262 | CC1=CN(C)C2=NC(C)N(c3ccc(C#N)cc3)C2=C1 (stereo not drawn) |
| 176 | Cc1cc(Cc2ccccc2)c(NC(=O)NCc2ccccc2)c(=O)n1CC(=O)O |
| 81.7 to 82 | O=C(Cc1ccccn1)N1CCC(C2c3ccc(Cl)cc3CCc3cccnc32)CC1 (stereo not drawn) |
| 53 to 56 | Oc1ccc(Cl)cc1CN1CCCCC1 |
| 160 | Nc1cc(=O)n(Cc2cccc(Br)c2)[nH]1 |
| 155 to 156 | OCc1cn(Cc2ccc(OCc3coc(-c4ccccc4)n3)cc2)nc1-c1cccs1 |
| 219 to 220 | O=C(O)c1ccc(OCCNC(=O)c2ccc(Cl)cc2)cc1 |
| 124 to 127 | CCOC(=O)Cc1csc(NC(=O)C(N)Cc2ccc(F)cc2)n1 (stereo not drawn) |
| 107 to 110 | O=S(=O)(Oc1cccc(O)c1)c1ccc(Cl)c(Cl)c1 |
| 156 to 158 | NCC(=O)Nc1sccc1C(=O)c1ccccc1Cl |
| 224 to 226 | CC1CNCCN1c1c(F)c(N)c2c(=O)c(C(=O)O)cn(C3CC3)c2c1F (stereo not drawn) |
| > 275 | CS(=O)(=O)c1ccc(-c2cc(-c3nc4ccccc4c(=O)n3-c3ccc(Cl)cc3)sc2N2CCOCC2)cc1 |
| 144 to 145 | CCOP(=O)(/C=C/c1cn(-c2ccccc2)nc1OCc1ccc(OCc2nc(-c3ccc(OC)c(C(=O)OC)c3)oc2C)c(OC)c1)OCC |
| 123 to 124 | CCOC(=O)C1Cc2cc3c(C)noc3c(Cl)c2O1 (stereo not drawn) |
| 158 to 162 | Oc1cccc(NCc2ccccc2)n1 |
| 176 to 178 | COC(=O)c1ccc(Cn2c(=O)c(C)c3sc(C(=O)NCc4ccc(F)cc4)cn3c2=O)cc1Cl |
| 295 to 297 | CCOC(=O)c1cn(C)c2c(=O)c3cc(Cl)ccc3oc2c1=O |
| 56 to 58 | COc1ccc(CN(CCN(C)CCN=C(NC#N)NCCSCc2csc(NC(=N)N)n2)c2ccccn2)cc1 |
| 93 to 95 | Clc1ccc(COC(CNc2ccc(Cl)cc2Cl)Cn2ccnc2)cc1 (stereo not drawn) |
| 114 to 116 | CN1CCC(c2cnc3ccc(C(=O)Nc4ccc(F)cc4)[nH]c2-3)CC1 |

The next lines start with the compound.

| SMILES | melting point [°C] |
| --- | --- |
| Nc1cc(Oc2ccc3c(c2)CCN3C(=O)Nc2cccc(C(F)(F)F)c2)ncn1 | 186 to 187 |
| CN1C(C)(C)CC(C(O)CNc2nc(Cl)nc(NCC(O)C3CC(C)(C)N(C)C(C)(C)C3)n2)CC1(C)C (stereo not drawn) | 166 to 176 |
| O=c1[nH]c2sc3ccc(C(F)(F)F)cc3c2[nH]c1=O | > 320 |
| NC(=O)CNC(=O)c1cccc(-c2cccc3nc(Oc4cccc(C(F)(F)F)c4)sc23)c1 | 203 to 204 |
| CCCCC(CC)COc1ccc2c(Br)c3cc(OCC(CC)CCCC)ccc3c(Br)c2c1 (stereo not drawn) | 103 to 105 |
| CC(C)c1cccc(CCC(O)CCCC2CCCCC2)c1NC(=O)CC1c2ccccc2Oc2ccccc21 (stereo not drawn) | 142 to 143 |
| CCOP(=O)(Cc1nsc2ccc(-n3c(=O)cc(C(F)(F)F)n(C)c3=O)cc12)OCC | 142 to 144 |
| Cc1sc(C(N)=O)c2c1-c1nn(CC(F)(F)F)cc1CC2 | 227 to 228 |
| CCC(=O)NCCc1c[nH]c2cc(Cl)c(OC)cc12 | 100 to 101 |
| CN(C(=O)c1ccc(N)cc1)[C@@H]1CN(C2CCCCC2)C[C@H]1O (relative stereo) | 180 to 182 |
| CCCNC(=O)CSc1nc(-c2ccccc2)c(-c2ccccc2)[nH]1 | 183 to 185 |
| N#Cc1nn(-c2c(Cl)cc(C(F)(F)F)cc2Cl)c(N)c1-c1cc(Cl)oc1Cl | 193 to 194 |
| Cn1cccc1CC(=O)O | 97 to 100 |
| Cc1c(O)ccc2c1OCC(c1ccc(Cl)cc1)C2 (stereo not drawn) | 98 to 100 |
| COc1ccc(C(=O)c2cccc(NC(=O)c3ccn4c3CSC4c3cccnc3)c2)cc1 (stereo not drawn) | 140 |
| COc1cccc(C(C#N)=NOS(C)(=O)=O)c1 | 105 to 107 |
| O=C(OC1CCCCC1)c1ncn2c1[C@@H]1CCCN1C(=O)c1c(Br)cccc1-2 | 167 to 168 |
